Experiments:
field violet = assay: Test D preemergence; format: in vivo, Viola arvensis; conditions: Viola arvensis, pre-emergence, scale 0-100, read-out: Plant response rating, Field Violet
Method in brief: (§1)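 Visual ratings from 0 (no effect) to 100 (complete control) relative to untreated plants were taken 7–21 days after treatment. Chemicals in a surfactant-containing solvent mixture were applied preemergence to seeds in silt loam, or postemergence to plants 2–18 cm tall (1–4 leaves) grown in a peat-based potting medium.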

kochia = assay: Test D postemergence; format: in vivo, Kochia scoparia; conditions: Bassia scoparia, post-emergence, scale 0 to 100 (0 no effect, 100 complete control), read-out: Plant response rating, Kochia
Method in brief: as §1

Italian ryegrass [1] = assay: Test D postemergence; format: in vivo, Lolium multiflorum; conditions: Lolium multiflorum, post-emergence, scale 0 to 100 (0 no effect, 100 complete control), read-out: Plant response rating, Ryegrass, Italian
Method in brief: as §1

Italian ryegrass [2] = assay: Test E postemergence; format: in vivo, Lolium multiflorum; conditions: Lolium multiflorum, post-emergence, read-out: Plant response rating, Ryegrass, Italian
Method in brief: (§2)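 Compound in a non-phytotoxic solvent mixture with surfactant was applied preemergence to seeds in silt loam soil, or postemergence to plants 2 to 18 cm tall grown in peat-based potting medium. Plants were kept in a greenhouse for 14 to 21 days, then rated visually against untreated controls on a 0 (no effect) to 100 (complete control) scale.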

galium = assay: Test D postemergence; format: in vivo, Galium aparine; conditions: Galium, post-emergence, scale 0 to 100 (0 no effect, 100 complete control), read-out: Plant response rating, Galium
Method in brief: as §1

speedwell = assay: Test D postemergence; format: in vivo, Veronica persica; conditions: Veronica persica, post-emergence, scale 0 to 100 (0 no effect, 100 complete control), read-out: Plant response rating, Speedwell
Method in brief: as §1

wild buckwheat = assay: Test D postemergence; format: in vivo, Polygonum convolvulus; conditions: Fallopia convolvulus, post-emergence, Postemergence, scale 0 to 100 (0 no effect, 100 complete control), read-out: Plant response rating, Buckwheat, Wild
Method in brief: as §1

soybean = assay: Test E postemergence; format: in vivo, Glycine max; conditions: Glycine max, post-emergence
Method in brief: as §2

[3] = tested on: waterhemp_RES2 (ALS & HPPD resistant common waterhemp); assay: Test E postemergence; format: in vivo, Amaranthus rudis; conditions: Amaranthus tuberculatus, post-emergence, read-out: Plant response rating, Waterhemp_RES2
Method in brief: as §2

chickweed = assay: Test D preemergence; format: in vivo, Stellaria media; conditions: Stellaria media, pre-emergence, scale 0-100, read-out: Plant response rating, Chickweed
Method in brief: as §1

wild poinsettia = assay: Test E postemergence; format: in vivo, Euphorbia heterophylla; conditions: Euphorbia heterophylla, post-emergence; Postemergence, 250 g ai/ha, scale 0 to 100; read-out: Plant response rating, Poinsettia, Wild
Method in brief: as §2

blackgrass = assay: Test D postemergence; format: in vivo, Alopecurus myosuroides; conditions: Alopecurus myosuroides, post-emergence, Postemergence, scale 0 to 100 (0 no effect, 100 complete control), read-out: Plant response rating, Blackgrass
Method in brief: as §1

deadnettle = assay: Test D preemergence; format: in vivo, Lamium amplexicaule; conditions: Lamium amplexicaule, pre-emergence, scale 0-100, read-out: Plant response rating, Deadnettle
Method in brief: as §1

[4] = Postemergence, 31 g ai/ha, scale 0 to 100
[5] = Postemergence, 62 g ai/ha, scale 0 to 100
[6] = Postemergence, 125 g ai/ha, scale 0 to 100
[7] = Postemergence, 250 g ai/ha, scale 0 to 100
[8] = postemergence, 16 g ai/ha, scale 0 to 100, 0 no effect, 100 complete control

## N#Cc1cccc(Oc2ncc(Cl)cn2)c1-n1cc(C(F)(F)F)cn1 [Compound 58, 3-[(5-chloro-2-pyrimidinyl)oxy]-2-[4-(trifluoromethyl)-1H-pyrazol-1-yl]benzonitrile]
Field violet; 31 g ai/ha
  pest or weed control at 31 g/ha: 100%
Field violet; 62 g ai/ha
  pest or weed control at 62 g/ha: 100%
Field violet; 125 g ai/ha
  pest or weed control at 125 g/ha: 100%
Field violet; 250 g ai/ha
  pest or weed control at 250 g/ha: 100%
kochia; 31 g ai/ha
  pest or weed control at 31 g/ha: 95%
kochia; 62 g ai/ha
  pest or weed control at 62 g/ha: 95%
kochia; 125 g ai/ha
  pest or weed control at 125 g/ha: 95%
kochia; 250 g ai/ha
  pest or weed control at 250 g/ha: 95%
Italian ryegrass [1]; 31 g ai/ha
  pest or weed control at 31 g/ha: 10%
Italian ryegrass [1]; 62 g ai/ha
  pest or weed control at 62 g/ha: 20%
Italian ryegrass [1]; 125 g ai/ha
  pest or weed control at 125 g/ha: 50%
Italian ryegrass [1]; 250 g ai/ha
  pest or weed control at 250 g/ha: 65%
Italian ryegrass [2]; [4]
  pest or weed control at 31 g/ha: 10%
Italian ryegrass [2]; [5]
  pest or weed control at 62 g/ha: 20%
Italian ryegrass [2]; [6]
  pest or weed control at 125 g/ha: 35%
Italian ryegrass [2]; [7]
  pest or weed control at 250 g/ha: 60%
Italian ryegrass [2]; [8]
  pest or weed control at 16 g/ha: 10%
galium; 31 g ai/ha
  pest or weed control at 31 g/ha: 70%
galium; 62 g ai/ha
  pest or weed control at 62 g/ha: 100%
galium; 125 g ai/ha
  pest or weed control at 125 g/ha: 100%
galium; 250 g ai/ha
  pest or weed control at 250 g/ha: 100%
speedwell; 31 g ai/ha
  pest or weed control at 31 g/ha: 100%
speedwell; 62 g ai/ha
  pest or weed control at 62 g/ha: 100%
speedwell; 125 g ai/ha
  pest or weed control at 125 g/ha: 100%
speedwell; 250 g ai/ha
  pest or weed control at 250 g/ha: 100%
Wild buckwheat; 31 g ai/ha
  pest or weed control at 31 g/ha: 90%
Wild buckwheat; 62 g ai/ha
  pest or weed control at 62 g/ha: 100%
Wild buckwheat; 125 g ai/ha
  pest or weed control at 125 g/ha: 100%
Wild buckwheat; 250 g ai/ha
  pest or weed control at 250 g/ha: 100%
soybean; [4]
  plant response (crop injury) rating, soybean, 0-100 scale at 31 g/ha: 95%
soybean; [5]
  plant response (crop injury) rating, soybean, 0-100 scale at 62 g/ha: 95%
soybean; [6]
  plant response (crop injury) rating, soybean, 0-100 scale at 125 g/ha: 95%
soybean; [7]
  plant response (crop injury) rating, soybean, 0-100 scale at 250 g/ha: 100%
soybean; [8]
  plant response (crop injury) rating, soybean, 0-100 scale at 16 g/ha: 75%
[3]; [4]
  pest or weed control at 31 g/ha: 90%
[3]; [5]
  pest or weed control at 62 g/ha: 90%
[3]; [6]
  pest or weed control at 125 g/ha: 95%
[3]; [7]
  pest or weed control at 250 g/ha: 100%
[3]; [8]
  pest or weed control at 16 g/ha: 80%
chickweed; 31 g ai/ha
  pest or weed control at 31 g/ha: 100%
chickweed; 62 g ai/ha
  pest or weed control at 62 g/ha: 100%
chickweed; 125 g ai/ha
  pest or weed control at 125 g/ha: 100%
chickweed; 250 g ai/ha
  pest or weed control at 250 g/ha: 100%
Wild poinsettia
  pest or weed control at 250 g/ha: 90%
blackgrass; 62 g ai/ha
  pest or weed control at 62 g/ha: 45%
blackgrass; 31 g ai/ha
  pest or weed control at 31 g/ha: 20%
blackgrass; 125 g ai/ha
  pest or weed control at 125 g/ha: 70%
blackgrass; 250 g ai/ha
  pest or weed control at 250 g/ha: 90%
deadnettle; 31 g ai/ha
  pest or weed control at 31 g/ha: 100%
deadnettle; 62 g ai/ha
  pest or weed control at 62 g/ha: 100%
deadnettle; 125 g ai/ha
  pest or weed control at 125 g/ha: 100%
deadnettle; 250 g ai/ha
  pest or weed control at 250 g/ha: 100%

From patent US9695155B2, “Herbicidal substituted pyrimidinyloxy benzene compounds” (E. I. DU PONT DE NEMOURS AND COMPANY, priority 2013, dated 2017)
